As usually defined, the EC50 is the concentration at which the effect is half-maximal.

Drawing on patent US10294234B2, “HIV inhibitor compounds” (priority 2017, dated 2019), this text covers EC50 for eleven compounds.

The subject of the first experiment is HIV-1 (IIIB) in MT-4 cells. The experiment is described as follows: MT-4 HIV assay. It counts as cell-based. The following applies: Human immunodeficiency virus 1, MT4, 120 h. As to the method:
Compounds were tested in a high-throughput 384-well assay format for their ability to inhibit the replication of HIV-1 (IIIB) in MT-4 cells. Compounds were serially diluted (1:3) in DMSO on 384-well polypropylene plates and further diluted 200-fold into complete RPMI media (10% FBS, 1% P/S) using the Biotek Micro Flow and Agilent ECHO acoustic dispenser. Each plate contained up to 8 test compounds, with negative (No Drug Control) and 5 uM AZT positive controls. MT-4 cells were pre-infected with 10 uL of either RPMI (mock-infected) or a fresh 1:250 dilution of an HIV-1 (IIIB) concentrated virus stock. Infected and uninfected MT-4 cells were further diluted in complete RPMI media and added to each plate using a Micro Flow dispenser. After 5 days incubation in a humidified and temperature controlled incubator (37° C.), Cell Titer Glo (Promega) was added to the assay plates to quantify the amount of luciferase.
Compound `COC(=O)N[C@H](C(=O)N[C@@H](Cc1ccc(C#Cc2ccc(N3CC[N+]([O-])(C4COC4)CC3)nc2)cc1)[C@@H](O)CN(Cc1c(F)cc(-c2ccn(C(F)F)n2)cc1F)NC(=O)[C@@H](NC(=O)OC)C(C)(C)C(F)(F)F)C(C)(C)C(F)(F)F` [Example 54, 4-(5-((4-((2S,3S)-4-(1-(4-(1-(difluoromethyl)-1H-pyrazol-3-yl)-2,6-difluorobenzyl)-2-((S)-4,4,4-trifluoro-2-((methoxycarbonyl)amino)-3,3-dimethylbutanoyl)hydrazinyl)-3-hydroxy-2-((S)-4,4,4-trifluoro-2-((methoxycarbonyl)amino)-3,3-dimethylbutanamido)butyl)phenyl)ethynyl)pyridin-2-yl)-1-(oxetan-3-yl)piperazine 1-oxide] yielded an EC50 of 8.47 nM. In turn, `COC(=O)N[C@H](C(=O)N[C@@H](Cc1ccc(C#Cc2ccc(N3CC4(C)CN(C5COC5)CC(C)(C3)C4=O)nc2)cc1)[C@@H](O)CN(Cc1c(F)cc(-c2cnn(C(F)F)c2)cc1F)NC(=O)[C@@H](NC(=O)OC)C(C)(C)C(F)(F)F)C(C)(C)C(F)(F)F` [Example 62, Methyl ((5S,8S,9S,14S)-11-(4-(1-(difluoromethyl)-1H-pyrazol-4-yl)-2,6-difluorobenzyl)-8-(4-((6-(1,5-dimethyl-7-(oxetan-3-yl)-9-oxo-3,7-diazabicyclo[3.3.1]nonan-3-yl)pyridin-3-yl)ethynyl)benzyl)-16,16,16-trifluoro-9-hydroxy-15,15-dimethyl-3,6,13-trioxo-5-(1,1,1-trifluoro-2-methylpropan-2-yl)-2-oxa-4,7,11,12-tetraazahexadecan-14-yl)carbamate] came in with an EC50 of 8.83 nM.

`COC(=O)N[C@H](C(=O)N[C@@H](Cc1ccc(C#Cc2ccc(N3CC4CC(C3)CN(C3COC3)C4)nc2)cc1)[C@@H](O)CN(Cc1c(F)cc(-c2cnn(C(F)F)c2)cc1F)NC(=O)[C@@H](NC(=O)OC)C(C)(C)C(F)(F)F)C(C)(C)C(F)(F)F` [Example 65, Methyl ((5S,8S,9S,14S)-11-(4-(1-(difluoromethyl)-1H-pyrazol-4-yl)-2,6-difluorobenzyl)-16,16,16-trifluoro-9-hydroxy-15,15-dimethyl-8-(4-((6-(7-(oxetan-3-yl)-3,7-diazabicyclo[3.3.1]nonan-3-yl)pyridin-3-yl)ethynyl)benzyl)-3,6,13-trioxo-5-(1,1,1-trifluoro-2-methylpropan-2-yl)-2-oxa-4,7,11,12-tetraazahexadecan-14-yl)carbamate] showed an EC50 of 7.7 nM.

The same experiment, now with this note: Human immunodeficiency virus 1, MT4, 120 h; HIV-1 (IIIB), MT-4 cells, 5 days, Cell Titer Glo; read-out: EC50.
Regarding `COC(=O)N[C@H](C(=O)N[C@@H](Cc1ccc(C#Cc2ccc(N3CC4CCC(C3)N4C3COC3)nc2)cc1)[C@@H](O)CN(Cc1ccc(-c2ccn(C3CC3)n2)cc1)NC(=O)[C@@H](NC(=O)OC)C(C)(C)C(F)(F)F)C(C)(C)C(F)(F)F` [Example 34, Methyl ((5S,8S,9S,14S)-11-(4-(1-cyclopropyl-1H-pyrazol-3-yl)benzyl)-16,16,16-trifluoro-9-hydroxy-15,15-dimethyl-8-(4-((6-(8-(oxetan-3-yl)-3,8-diazabicyclo [3.2.1]octan-3-yl)pyridin-3-yl)ethynyl)benzyl)-3,6,13-trioxo-5-(1,1,1-trifluoro-2-methylpropan-2-yl)-2-oxa-4,7,11,12-tetraazahexadecan-14-yl)carbamate], the EC50 amounted to 5.26 nM.

In the case of `COC(=O)N[C@H](C(=O)N[C@@H](Cc1ccc(C#Cc2ccc(N3CC4CC(C3)N4C3COC3)nc2)cc1)[C@@H](O)CN(Cc1c(F)cc(-c2ccc(N3CC4CC(C3)N4C3COC3)nc2)cc1F)NC(=O)[C@@H](NC(=O)OC)C(C)(C)C(F)(F)F)C(C)(C)C(F)(F)F` [Example 38, Methyl ((5S,8S,9S,14S)-11-(2,6-difluoro-4-(6-(6-(oxetan-3-yl)-3,6-diazabicyclo[3.1.1]heptan-3-yl)pyridin-3-yl)benzyl)-16,16,16-trifluoro-9-hydroxy-15,15-dimethyl-8-(4-((6-(6-(oxetan-3-yl)-3,6-diazabicyclo[3.1.1]heptan-3-yl)pyridin-3-yl)ethynyl)benzyl)-3,6,13-trioxo-5-(1,1,1-trifluoro-2-methylpropan-2-yl)-2-oxa-4,7,11,12-tetraazahexadecan-14-yl)carbamate], the EC50 amounted to 6.13 nM. Same read-out and setting: the same measure for `COC(=O)N[C@H](C(=O)N[C@@H](Cc1ccc(C#Cc2ccc(N3CC4CC(C3)N4C3COC3)nc2)cc1)[C@@H](O)CN(Cc1c(F)cc(-c2ccn(CC(F)F)n2)cc1F)NC(=O)[C@@H](NC(=O)OC)C(C)(C)C(F)(F)F)C(C)(C)C(F)(F)F` [Example 41, Methyl ((5S,8S,9S,14S)-11-(4-(1-(2,2-difluoroethyl)-1H-pyrazol-3-yl)-2,6-difluorobenzyl)-16,16,16-trifluoro-9-hydroxy-15,15-dimethyl-8-(4-((6-(6-(oxetan-3-yl)-3,6-diazabicyclo[3.1.1]heptan-3-yl)pyridin-3-yl)ethynyl)benzyl)-3,6,13-trioxo-5-(1,1,1-trifluoro-2-methylpropan-2-yl)-2-oxa-4,7,11,12-tetraazahexadecan-14-yl)carbamate]: 3.58 nM; for `COC(=O)N[C@H](C(=O)N[C@@H](Cc1ccc(C#Cc2cnc(N3CC4CC(C3)N4C3COC3)nc2)cc1)[C@@H](O)CN(Cc1c(F)cc(-c2ccn(C(F)F)n2)cc1F)NC(=O)[C@@H](NC(=O)OC)C(C)(C)C(F)(F)F)C(C)(C)C(F)(F)F` [Example 42, Methyl ((5S,8S,9S,14S)-11-(4-(1-(difluoromethyl)-1H-pyrazol-3-yl)-2,6-difluorobenzyl)-16,16,16-trifluoro-9-hydroxy-15,15-dimethyl-8-(4-((2-(6-(oxetan-3-yl)-3,6-diazabicyclo[3.1.1]heptan-3-yl)pyrimidin-5-yl)ethynyl)benzyl)-3,6,13-trioxo-5-(1,1,1-trifluoro-2-methylpropan-2-yl)-2-oxa-4,7,11,12-tetraazahexadecan-14-yl)carbamate]: 3.18 nM. As for `COC(=O)N[C@H](C(=O)N[C@@H](Cc1ccc(C#Cc2ccc3nc(N4CC5CCC(C4)N5C4COC4)ccc3n2)cc1)[C@@H](O)CN(Cc1c(F)cc(-c2ccn(C(F)F)n2)cc1F)NC(=O)[C@@H](NC(=O)OC)C(C)(C)C(F)(F)F)C(C)(C)C(F)(F)F` [Example 47, Methyl ((5S,8S,9S,14S)-11-(4-(1-(difluoromethyl)-1H-pyrazol-3-yl)-2,6-difluorobenzyl)-16,16,16-trifluoro-9-hydroxy-15,15-dimethyl-8-(4-((6-(8-(oxetan-3-yl)-3,8-diazabicyclo[3.2.1]octan-3-yl)-1,5-naphthyridin-2-yl)ethynyl)benzyl)-3,6,13-trioxo-5-(1,1,1-trifluoro-2-methylpropan-2-yl)-2-oxa-4,7,11,12-tetraazahexadecan-14-yl)carbamate], the EC50 turned out to be 7.18 nM.

Consider `COC(=O)N[C@H](C(=O)N[C@@H](Cc1ccc(C#Cc2nc(N3CC4CCC(C3)N4C3COC3)nc(N3C[C@H]4CC[C@@H](C3)N4C3COC3)n2)cc1)[C@@H](O)CN(Cc1c(F)cc(-c2ccn(C(F)F)n2)cc1F)NC(=O)[C@@H](NC(=O)OC)C(C)(C)C(F)(F)F)C(C)(C)C(F)(F)F` [Example 49, Methyl ((5S,8S,9S,14S)-11-(4-(1-(difluoromethyl)-1H-pyrazol-3-yl)-2,6-difluorobenzyl)-16,16,16-trifluoro-9-hydroxy-15,15-dimethyl-8-(4-((4-((1R,5S)-8-(oxetan-3-yl)-3,8-diazabicyclo[3.2.1]octan-3-yl)-6-(8-(oxetan-3-yl)-3,8-diazabicyclo[3.2.1]octan-3-yl)-1,3,5-triazin-2-yl)ethynyl)benzyl)-3,6,13-trioxo-5-(1,1,1-trifluoro-2-methylpropan-2-yl)-2-oxa-4,7,11,12-tetraazahexadecan-14-yl)carbamate], for which the EC50 amounted to 37.3 nM. For `COC(=O)N[C@H](C(=O)N[C@@H](Cc1ccc(C#Cc2ccc(N3CCN4CCOC[C@@H]4C3)nc2)cc1)[C@@H](O)CN(Cc1c(F)cc(-c2ccn(C(F)F)n2)cc1F)NC(=O)[C@@H](NC(=O)OC)C(C)(C)C(F)(F)F)C(C)(C)C(F)(F)F` [Example 55, Methyl ((5S,8S,9S,14S)-11-(4-(1-(difluoromethyl)-1H-pyrazol-3-yl)-2,6-difluorobenzyl)-16,16,16-trifluoro-8-(4-((6-((S)-hexahydropyrazino[2,1-c][1,4]oxazin-8(1H)-yl)pyridin-3-yl)ethynyl)benzyl)-9-hydroxy-15,15-dimethyl-3,6,13-trioxo-5-(1,1,1-trifluoro-2-methylpropan-2-yl)-2-oxa-4,7,11,12-tetraazahexadecan-14-yl)carbamate], the EC50 was determined as 4.44 nM.

`COC(=O)N[C@H](C(=O)N[C@@H](Cc1ccc(C#Cc2ccc(N3CC4CCC(C3)N4C(=O)[C@@H]3CCCO3)nc2)cc1)[C@@H](O)CN(Cc1c(F)cc(-c2cnc(F)c(F)c2)cc1F)NC(=O)[C@@H](NC(=O)OC)C(C)(C)C)C(C)(C)C` [Example 64, Methyl ((5S,8S,9S,14S)-5-(tert-butyl)-11-(4-(5,6-difluoropyridin-3-yl)-2,6-difluorobenzyl)-9-hydroxy-15,15-dimethyl-3,6,13-trioxo-8-(4-((6-(8-((S)-tetrahydrofuran-2-carbonyl)-3,8-diazabicyclo[3.2.1]octan-3-yl)pyridin-3-yl)ethynyl)benzyl)-2-oxa-4,7,11,12-tetraazahexadecan-14-yl)carbamate]: the EC50 came out at 5.4 nM.
